# Assay results as given in patent US6833372B2, “Non-peptide GnRH agents, Pharmaceutical compositions, and methods for their use” (Pfizer, Inc., priority 2002, dated 2004).
# Biological target: T1, human GnRH receptors (Homo sapiens, UniProt P30968)
# T1 construct: expressed in transfected cells; host or cells: HEK 293 cells, stably transfected; membranes
# T1 sequence (P30968 1-328): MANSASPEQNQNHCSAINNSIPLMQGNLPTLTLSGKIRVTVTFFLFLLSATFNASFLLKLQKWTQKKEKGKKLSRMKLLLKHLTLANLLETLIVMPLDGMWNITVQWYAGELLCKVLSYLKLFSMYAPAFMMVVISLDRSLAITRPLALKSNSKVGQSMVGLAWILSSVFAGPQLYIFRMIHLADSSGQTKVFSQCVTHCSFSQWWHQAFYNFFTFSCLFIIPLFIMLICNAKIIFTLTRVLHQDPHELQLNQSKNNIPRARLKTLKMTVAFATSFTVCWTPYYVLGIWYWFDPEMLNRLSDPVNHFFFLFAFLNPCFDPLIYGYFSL
# Test: Radioligand binding: inhibition of 125I-GnRH-A binding to human GnRH receptor membranes
# Settings: HEK 293 cell membranes
# Method: HEK 293 cells stably transfected with mouse or human GnRH receptors as described above were grown in Dulbecco's high-glucose, modified Eagle's medium (DMEM) supplemented with 0.2% G418, 10% fetal bovine serum (FBS) and 100 U/mL penicillin/streptomycin. GH3 cells stably transfected with the rat GnRH receptor (GGH3) were provided by Dr. William Chin (Harvard Medical School, Boston, Mass.). These cells have been extensively characterized previously (Kaiser et al., 1997). The cells were grown in low glucose DMEM containing: 100U/mL penicillin/streptomycin, 0.6% G418 and 10% heat-inactivated FBS.
# HEK 293 cells containing mouse or human receptors, or rat pituitaries (Pel Freez Biologicals, Rogers, Ark.) were homogenized in buffer A containing: 50 mM Tris (pH 7.4), 0.32 M sucrose, 2 mM EGTA, 1 mM PMSF, 5 μg/ml aprotinen, 5 μg/ml Pepstatin A, and 1 μg/ml leupeptin. Homogenized cells were centrifuged at 4° C. at 20,000×g for 25 minutes, re-suspended in buffer A and re-centrifuged at 4° C. at 20,000×g for an additional 25 minutes. Total membrane protein was determined with a BCA kit (Pierce, Rockford, Ill.). Membranes were stored at −70° C. at a final membrane protein concentration of approximately 5 mg/ml.
# The radioiodinated agonist analog of GnRH, [des-Gly^10,D-Ala^6]GnRH ethylamide (^125I-GnRH-A), was used as the radioligand. […] The reaction mixture was vortexed and incubated for 1 minute at room temperature. After one minute, the mixture was vortexed and allowed to incubate for an additional minute. 2 ml of 0.5 M acetic acid/1% BSA was added to the reaction tube and the mixture was added to a C18 Sep-Pak cartridge. The cartridge was washed with subsequent washes of 5 ml H2O and 5 ml 0.5 M acetic acid and then eluted with 5×1 ml of 60% CH3CN/40% 0.5 M acetic acid. The eluate was diluted with 3× volume of HPLC buffer A (0.1% TFA in H2O) and loaded onto a C18 column. The iodinated product was eluted over 20-25 min with a gradient of 25-100% CH3CN containing 0.1% TFA. The radioactive fractions (750 μl/fraction) were collected into clean polypropylene tubes containing 100 μl of 10% BSA. Fractions were assessed for biological activity by radioligand binding. Specific activity of the radioligand was approximately 2200 Ci/mmol.
# Membranes were diluted to 0.01-0.5 mg/ml (depending upon the species of receptor) with assay buffer containing 50 mM HEPES (pH 7.4), 1 mM EDTA, 2.5 mM MgCl2, and 0.1% BSA. Membranes (diluted to utilize similar receptor numbers between assays) were incubated with approximately 0.04-0.06 nM ^125I-GnRH-A in the presence or absence of competing agents (0.1-10,000 nM) in a total volume of 200 μl in 96-well polypropylene plates for 1 hour at room temperature. Assays were stopped by rapid filtration onto 96-well GF/C filters soaked in 0.1% polyethylenimine (PEI) utilizing a Packard 96-well cell harvester. Filters were washed three times with ice-cold PBS (50 mM NaPO4, 0.9% NaCl, 2 mM MgCl2, and 0.02% NaN3, pH 7.4). 35 μl of scintillation cocktail was added to each filter well and filters were counted on a Packard Topcount. Control dose-response curves were generated to GnRH (0.1 nM-100 nM) in each competition binding experiment. Ki values were calculated from IC50 values according to Cheng et al., Biochemical Pharmacol. 22: 3099-3108, 1973. [formula]
row,SMILES,Ki
1,"COc1nc(NCCCN2CCOCC2)nc(OC)c1NC(=O)c1ccc(Cc2c(C)cc3c(c2C)C(C)(C)CO3)o1 [Example H1, N-{4,6-Dimethoxy-2-[(3-morpholin-4-ylpropyl)amino]-pyrimidin-5-yl}-5-[(3,3,4,6-tetramethyl-2,3-dihydro-1-benzofuran-5-yl)methyl]-2-furamide]",50 nM
2,"COc1nc(NCc2ccc(C(F)(F)F)nc2)nc(OC)c1NC(=O)c1ccc(Cc2cc3c(cc2C)C(C)(C)OC3(C)C)o1 [Example D36, N-[4,6-Dimethoxy-2-({[6-(trifluoromethyl)pyridin-3-yl]-methyl}amino)pyrimidin-5-yl]-5-[(1,1,3,3,6-pentamethyl-1,3-dihydro-2-benzofuran-5-yl)methyl]-2-furamide]",87 nM
3,"COc1nc(N(CCN(C)C)Cc2ccc(F)cc2)nc(OC)c1NC(=O)c1ccc(Cc2cc3c(cc2C)C(C)(C)OC3(C)C)o1 [Example D47, N-{2-[[2-(Dimethylamino)ethyl](4-fluorobenzyl)amino]-4,6-dimethoxypyrimidin-5-yl}-5-[(1,1,3,3,6-pentamethyl-1,3-dihydro-2-benzofuran-5-yl)methyl]-2-furamide]",79 nM
4,"COc1nc(NCCc2ccccn2)nc(OC)c1NC(=O)c1ccc(Cc2cc3c(cc2C)C(C)(C)OC3(C)C)o1 [Example D65, N-{4,6-Dimethoxy-2-[(2-pyridin-2-ylethyl)amino]pyrimidin-5-yl}-5-[(1,1,3,3,6-pentamethyl-1,3-dihydro-2-benzofuran-5-yl)methyl]-2-furamide]",6.7 nM
5,"COc1nc(N[C@@H]2CCC[C@H]2OCc2ccccc2)nc(OC)c1NC(=O)c1ccc(Cc2cc3c(cc2C)C(C)(C)OC3(C)C)o1 [Example D32, N-(2-{[(1R,2R)-2-(Benzyloxy)cyclopentyl]amino}-4,6-dimethoxypyrimidin-5-yl)-5-[(1,1,3,3,6-pentamethyl-1,3-dihydro-2-benzofuran-5-yl)methyl]-2-furamide]",22 nM
6,"COc1nc(N(C)CC(=O)O)nc(OC)c1NC(=O)c1ccc(Cc2cc3c(cc2C)C(C)(C)OC3(C)C)o1 [Example D27, N-[4,6-Dimethoxy-5-({5-[(1,1,3,3,6-pentamethyl-1,3-dihydro-2-benzofuran-5-yl)methyl]-2-furoyl}amino)pyrimidin-2-yl]-N-methylglycine]",250 nM
7,"COc1ccccc1C1CCN(c2nc(OC)c(NC(=O)c3ccc(Cc4cc5c(cc4C)C(C)(C)OC5(C)C)o3)c(OC)n2)CC1 [Example D52, N-{4,6-Dimethoxy-2-[4-(2-methoxyphenyl)piperidin-1-yl]pyrimidin-5-yl}-5-[(1,1,3,3,6-pentamethyl-1,3-dihydro-2-benzofuran-5-yl)methyl]-2-furamide]",260 nM
8,"COc1nc(N2CCN(CC(=O)N(C)C)CC2)nc(OC)c1NC(=O)c1ccc(Cc2cc3c(cc2C)C(C)(C)OC3(C)C)o1 [Example D30, N-(2-{4-[2-(Dimethylamino)-2-oxoethyl]piperazin-1-yl}4,6-dimethoxypyrimidin-5-yl)-5-[(1,1,3,3,6-pentamethyl-1,3-dihydro-2-benzofuran-5-yl)methyl]-2-furamide]",46 nM
9,"COc1nc(N(C)Cc2cccc(C)n2)nc(OC)c1NC(=O)c1ccc(Cc2cc3c(cc2C)C(C)(C)OC3(C)C)o1 [Example D29, N-(4,6-Dimethoxy-2-{methyl[(6-methylpyridin-2-yl)methyl]amino}pyrimidin-5-yl)-5-[(1,1,3,3,6-pentamethyl-1,3-dihydro-2-benzofuran-5-yl)methyl]-2-furamide]",54 nM
10,"COc1nc(NC2CCCCC2C2CCCCC2)nc(OC)c1NC(=O)c1ccc(Cc2cc3c(cc2C)C(C)(C)OC3(C)C)o1 (stereo not shown) [Example D31, N-{2-[1,1′-Bi(cyclohexyl)-2-ylamino]4,6-dimethoxy-pyrimidin-5-yl}-5-[(1,1,3,3,6-pentamethyl-1,3-dihydro-2-benzofuran-2-benofuran-5-yl)methyl]-2-furamide]",6700 nM
